Data: BindingDB's records for doi:10.1021/jm020230j (Sunesis Pharmaceuticals, 2002)

Columns and labels:
Assay in all cases: Fluorometric Assay
Settings in all cases: pH 7.4; 25 °C
Caspase-1 = target: T1, Caspase-1 (Homo sapiens, UniProt P29466)
T1 sequence (P29466 whole entry): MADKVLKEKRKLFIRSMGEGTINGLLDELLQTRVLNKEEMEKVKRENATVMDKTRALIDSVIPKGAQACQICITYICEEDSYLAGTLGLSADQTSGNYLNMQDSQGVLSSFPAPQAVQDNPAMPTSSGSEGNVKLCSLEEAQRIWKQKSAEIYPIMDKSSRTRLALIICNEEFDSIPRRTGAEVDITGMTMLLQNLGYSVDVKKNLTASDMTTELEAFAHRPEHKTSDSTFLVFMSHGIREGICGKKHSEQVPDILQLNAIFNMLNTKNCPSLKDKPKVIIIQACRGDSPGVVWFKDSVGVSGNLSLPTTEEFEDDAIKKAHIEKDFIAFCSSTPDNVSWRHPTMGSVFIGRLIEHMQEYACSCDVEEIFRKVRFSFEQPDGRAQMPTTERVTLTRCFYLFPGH
Procedure: (§1) The effectiveness of compounds against the activity of human recombinant caspase-1-8 was measured using fluorometric assays. Assays were carried out in a 96-well flat bottom, polystyrene plates. […] Kinetic data were collected over a 15 min assay run at room temperature. IC50 values were calculated through a four parameter fit curve using the computer application SOFTmax PRO. Ki(apparent) values were calculated using the following equation: Ki(app) = IC50/(1 + [substrate]/Km).

Caspase-2 = target: T2, Caspase-2 (Homo sapiens, UniProt P42575)
T2 sequence (P42575 whole entry): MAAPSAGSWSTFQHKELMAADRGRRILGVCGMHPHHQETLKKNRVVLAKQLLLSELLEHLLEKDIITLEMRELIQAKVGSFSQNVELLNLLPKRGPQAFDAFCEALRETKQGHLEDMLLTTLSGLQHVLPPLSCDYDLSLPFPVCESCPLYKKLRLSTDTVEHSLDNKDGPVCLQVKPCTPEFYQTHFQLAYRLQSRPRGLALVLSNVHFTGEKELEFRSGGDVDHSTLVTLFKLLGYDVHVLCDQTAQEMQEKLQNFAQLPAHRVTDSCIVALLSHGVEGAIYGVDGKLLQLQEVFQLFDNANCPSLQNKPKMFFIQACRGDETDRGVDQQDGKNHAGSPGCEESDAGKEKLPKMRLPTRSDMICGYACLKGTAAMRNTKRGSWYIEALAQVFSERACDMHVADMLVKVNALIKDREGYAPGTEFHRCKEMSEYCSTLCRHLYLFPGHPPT
Procedure: as §1

Caspase-3 = target: T3, Caspase-3 (Homo sapiens, UniProt P42574)
T3 sequence (P42574 whole entry): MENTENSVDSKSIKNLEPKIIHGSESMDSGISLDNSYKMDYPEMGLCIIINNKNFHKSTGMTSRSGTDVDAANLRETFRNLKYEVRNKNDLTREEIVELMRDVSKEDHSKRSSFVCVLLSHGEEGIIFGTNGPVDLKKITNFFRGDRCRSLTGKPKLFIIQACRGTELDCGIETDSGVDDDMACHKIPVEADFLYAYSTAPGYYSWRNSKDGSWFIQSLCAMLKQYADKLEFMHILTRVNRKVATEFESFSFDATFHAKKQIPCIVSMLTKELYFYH
Procedure: as §1

Caspase-4 = target: T4, Caspase-4 (Homo sapiens, UniProt P49662)
T4 sequence (P49662 whole entry): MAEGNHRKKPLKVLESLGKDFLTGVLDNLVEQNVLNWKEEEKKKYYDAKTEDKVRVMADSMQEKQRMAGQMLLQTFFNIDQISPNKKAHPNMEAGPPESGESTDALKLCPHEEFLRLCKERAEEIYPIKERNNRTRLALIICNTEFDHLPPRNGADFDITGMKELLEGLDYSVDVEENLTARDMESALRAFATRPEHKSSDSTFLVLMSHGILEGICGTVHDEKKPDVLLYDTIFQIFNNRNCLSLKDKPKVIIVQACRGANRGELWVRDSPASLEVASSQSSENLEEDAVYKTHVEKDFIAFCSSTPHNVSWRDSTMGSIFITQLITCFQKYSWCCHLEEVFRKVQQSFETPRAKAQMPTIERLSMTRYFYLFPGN
Procedure: as §1

Caspase-6 = target: T5, Caspase-6 (Homo sapiens, UniProt P55212)
T5 sequence (P55212 whole entry): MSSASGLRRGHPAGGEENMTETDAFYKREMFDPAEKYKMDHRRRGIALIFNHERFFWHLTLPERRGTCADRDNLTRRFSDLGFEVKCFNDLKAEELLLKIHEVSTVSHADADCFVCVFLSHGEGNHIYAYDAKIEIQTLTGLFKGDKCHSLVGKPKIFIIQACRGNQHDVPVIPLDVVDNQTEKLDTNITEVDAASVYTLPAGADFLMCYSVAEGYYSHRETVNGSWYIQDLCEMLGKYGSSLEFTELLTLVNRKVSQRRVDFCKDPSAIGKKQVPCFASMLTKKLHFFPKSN
Procedure: as §1

Caspase-7 = target: T6, Caspase-7 (Homo sapiens, UniProt P55210)
T6 sequence (P55210 whole entry): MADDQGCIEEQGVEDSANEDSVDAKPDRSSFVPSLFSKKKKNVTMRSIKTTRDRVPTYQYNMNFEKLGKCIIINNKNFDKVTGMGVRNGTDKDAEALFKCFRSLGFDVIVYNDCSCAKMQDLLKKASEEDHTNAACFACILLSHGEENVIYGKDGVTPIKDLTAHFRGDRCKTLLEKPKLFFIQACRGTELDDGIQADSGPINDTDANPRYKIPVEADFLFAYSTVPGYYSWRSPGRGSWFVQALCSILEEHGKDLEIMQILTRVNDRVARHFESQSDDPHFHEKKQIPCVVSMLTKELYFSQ
Procedure: as §1

Caspase-8 = Caspase-8 (Homo sapiens, UniProt Q14790)
Sequence of Caspase-8 (Q14790 217-374 limits assumed): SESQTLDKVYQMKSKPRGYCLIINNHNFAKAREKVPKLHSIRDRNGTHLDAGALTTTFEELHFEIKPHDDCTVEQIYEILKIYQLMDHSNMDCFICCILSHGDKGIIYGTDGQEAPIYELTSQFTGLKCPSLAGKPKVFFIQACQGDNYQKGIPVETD
Sequence of Caspase-8 (Q14790 385-479 limits assumed): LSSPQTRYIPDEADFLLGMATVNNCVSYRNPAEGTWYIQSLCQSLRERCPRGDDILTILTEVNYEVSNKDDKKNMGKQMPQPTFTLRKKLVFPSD
Procedure: as §1

O=C(O)C[C@H](NC(=O)c1ccc(CNS(=O)(=O)c2ccc(O)c(C(=O)O)c2)nc1)C(=O)CSCc1ccccc1Cl [(S)-5-({5-[1-Carboxymethyl-3-(2-chloro-benzylsulfanyl)-2-oxo-propylcarbamoyl]pyridin-2-ylmethyl}sulfamoyl)-2-hydroxy-benzoic Acid]
Ki (Caspase-1): 1500 nM | Ki (Caspase-2): 11000 nM | Ki (Caspase-3): 30 nM | Ki (Caspase-4): 38000 nM | Ki (Caspase-6): 120 nM | Ki (Caspase-7): 90 nM | Ki (Caspase-8): 810 nM
